Our source for the IC50 values is patent publication US8975398B2, “NAMPT inhibitors” (AbbVie Inc., priority 2012, dated 2015).

For assay [1], the target named is NAMPT (human, recombinant, C-terminally His-tagged) (Homo sapiens, UniProt P43490). Description: Time-Resolved Fluorescence Resonance Energy Transfer (TR-FRET) Binding Assay of NAMPT. The settings on record: 6.8 nM NAMPT, 200 nM probe, equilibrated 3 hours, absence of substrates. The essentials: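 Recombinant C-terminally His-tagged human NAMPT (6.8 nM) incubated 3 h at room temperature with 200 nM Oregon Green 488–labelled nicotinamide-competitive probe and 1 nM Tb-anti-His antibody in HEPES pH 7.5, 2% DMSO. TR-FRET ratio Em520/Em495 normalized to controls; IC50 from four-parameter logistic fit.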
Background: In TR-FRET formats the signal depends on donor and acceptor labels being close together.

A further assay deals with NAMPT (Homo sapiens, UniProt P43490). Description: Time-Resolved Fluorescence Resonance Energy Transfer (TR-FRET) Binding Assay of NAMPT with PRPP. Particulars: 2 nM NAMPT, 2 nM probe, 200 uM PRPP and 2.5 mM ATP, equilibrated 16 hours. The gist of the method:
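Final mix: 2 nM NAMPT, 2 nM probe, 1 nM Tb-anti-His antibody, 200 uM PRPP, 2.5 mM ATP, 2% DMSO in 1× assay buffer. Equilibrated 16 hours before TR-FRET read, allowing possible enzymatic modification of compounds.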

Sequence of NAMPT (P43490 whole entry): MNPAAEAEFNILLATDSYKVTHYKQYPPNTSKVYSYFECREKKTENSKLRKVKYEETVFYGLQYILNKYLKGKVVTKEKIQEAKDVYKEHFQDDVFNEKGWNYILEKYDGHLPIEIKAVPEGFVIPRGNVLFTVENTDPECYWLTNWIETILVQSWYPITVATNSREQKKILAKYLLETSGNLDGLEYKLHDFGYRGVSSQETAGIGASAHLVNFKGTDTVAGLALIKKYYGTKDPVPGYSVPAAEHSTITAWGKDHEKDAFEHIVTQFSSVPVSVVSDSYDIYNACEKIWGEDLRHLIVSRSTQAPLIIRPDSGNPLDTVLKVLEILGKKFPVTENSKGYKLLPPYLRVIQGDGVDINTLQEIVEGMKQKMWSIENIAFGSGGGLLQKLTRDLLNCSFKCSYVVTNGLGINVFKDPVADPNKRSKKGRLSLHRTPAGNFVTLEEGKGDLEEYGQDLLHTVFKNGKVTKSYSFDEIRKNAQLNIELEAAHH
Sequence of NAMPT (human, recombinant, C-terminally His-tagged) (P43490 whole entry): as above

The term IC50 denotes the concentration that inhibits the measured activity by half. On to `CN1CCN(CC(=O)N2CCC(c3ccc(NC(=O)C4CN(c5cccnc5)C4)cc3)CC2)CC1` [Example 113, N-(4-{1-[(4-methylpiperazin-1-yl)acetyl]piperidin-4-yl}phenyl)-1-(pyridin-3-yl)azetidine-3-carboxamide], for which the IC50 in assay [1] was determined as 60.6 nM; at NAMPT it was 0.254 nM.

In the case of `O=C1CC[C@@H](C(=O)N2CCC(c3ccc(NC(=O)C4CN(c5cccnc5)C4)cc3)CC2)N1` [Example 114, N-{4-[1-(5-oxo-L-prolyl)piperidin-4-yl]phenyl}-1-(pyridin-3-yl)azetidine-3-carboxamide], the IC50 came to 83.9 nM in assay [1] and 0.247 nM on NAMPT.

On to `CCOCCC(=O)N1CCC(c2ccc(NC(=O)C3CN(c4cccnc4)C3)cc2)CC1` [Example 115, N-{4-[1-(3-ethoxypropanoyl)piperidin-4-yl]phenyl}-1-(pyridin-3-yl)azetidine-3-carboxamide], for which the results for the IC50 (in assay [1]; on NAMPT) were 48.2 nM and 0.178 nM, respectively.

For the compound `CC(C)CCC(=O)N1CCC(c2ccc(NC(=O)C3CN(c4cccnc4)C3)cc2)CC1` [Example 116, N-{4-[1-(4-methylpentanoyl)piperidin-4-yl]phenyl}-1-(pyridin-3-yl)azetidine-3-carboxamide], the concentration for half-maximal inhibition (IC50) in assay [1] came out at 26.5 nM; at NAMPT it was 0.204 nM.

As for `CC1(C(=O)N2CCC(c3ccc(NC(=O)C4CN(c5cccnc5)C4)cc3)CC2)CCCCC1` [Example 117, N-(4-{1-[(1-methylcyclohexyl)carbonyl]piperidin-4-yl}phenyl)-1-(pyridin-3-yl)azetidine-3-carboxamide], the half-inhibitory concentration (IC50) in assay [1] was determined as 6.27 nM; on NAMPT it was 0.355 nM.

Regarding `CC(=O)N1CCC(c2ccc(NC(=O)C3CN(c4cccnc4)C3)cc2)CC1` [Example 118, N-[4-(1-acetylpiperidin-4-yl)phenyl]-1-(pyridin-3-yl)azetidine-3-carboxamide], the IC50 stood at 14.1 nM in assay [1] and 0.169 nM on NAMPT.

As for `O=C(Nc1ccc(C2CCN(C(=O)CC3CCCCC3)CC2)cc1)C1CN(c2cccnc2)C1` [Example 119, N-{4-[1-(cyclohexylacetyl)piperidin-4-yl]phenyl}-1-(pyridin-3-yl)azetidine-3-carboxamide], the IC50 was 6.12 nM in assay [1] and 0.169 nM at NAMPT.

Turning to `CC(=O)N[C@@H](CC(C)C)C(=O)N1CCC(c2ccc(NC(=O)C3CN(c4cccnc4)C3)cc2)CC1` [Example 120, N-{4-[1-(N-acetyl-L-leucyl)piperidin-4-yl]phenyl}-1-(pyridin-3-yl)azetidine-3-carboxamide], the IC50 in assay [1] turned out to be 11.6 nM; on NAMPT, 0.294 nM.

As for `CCC(=O)N1CCC(c2ccc(NC(=O)C3CN(c4cccnc4)C3)cc2)CC1` [Example 121, N-[4-(1-propanoylpiperidin-4-yl)phenyl]-1-(pyridin-3-yl)azetidine-3-carboxamide], the results for the IC50 (in assay [1]; on NAMPT) were 9.94 nM and 0.169 nM, respectively.

Regarding `O=C(Nc1ccc(C2CCN(C(=O)CC(F)(F)F)CC2)cc1)C1CN(c2cccnc2)C1` [Example 122, 1-(pyridin-3-yl)-N-{4-[1-(3,3,3-trifluoropropanoyl)piperidin-4-yl]phenyl}azetidine-3-carboxamide], the IC50 in assay [1] came to 7.94 nM; on NAMPT, 0.169 nM.

On to `COCCOCC(=O)N1CCC(c2ccc(NC(=O)C3CN(c4cccnc4)C3)cc2)CC1` [Example 123, N-(4-{1-[(2-methoxyethoxy)acetyl]piperidin-4-yl}phenyl)-1-(pyridin-3-yl)azetidine-3-carboxamide], for which the concentration for half-maximal inhibition (IC50) stood at 65.6 nM in assay [1] and 0.282 nM on NAMPT.

In the case of `O=C(Nc1ccc(C2CCN(C(=O)CCN3CCOCC3)CC2)cc1)C1CN(c2cccnc2)C1` [Example 124, N-(4-{1-[3-(morpholin-4-yl)propanoyl]piperidin-4-yl}phenyl)-1-(pyridin-3-yl)azetidine-3-carboxamide], the IC50 turned out to be 123 nM in assay [1] and 0.278 nM at NAMPT.

On to `CC(C)(C)C(=O)N1CCC(c2ccc(NC(=O)C3CN(c4cccnc4)C3)cc2)CC1` [Example 125, N-{4-[1-(2,2-dimethylpropanoyl)piperidin-4-yl]phenyl}-1-(pyridin-3-yl)azetidine-3-carboxamide], for which the IC50 in assay [1] came out at 15.4 nM; on NAMPT, 0.518 nM.

In the case of `Cc1ccc(C(=O)N2CCC(c3ccc(NC(=O)C4CN(c5cccnc5)C4)cc3)CC2)s1` [Example 126, N-(4-{1-[(5-methylthiophen-2-yl)carbonyl]piperidin-4-yl}phenyl)-1-(pyridin-3-yl)azetidine-3-carboxamide], the 50% inhibitory concentration (IC50) in assay [1] was determined as 14.9 nM; at NAMPT, 0.359 nM.

Regarding `O=C(Nc1ccc(C2CCN(C(=O)c3cccs3)CC2)cc1)C1CN(c2cccnc2)C1` [Example 127, 1-(pyridin-3-yl)-N-{4-[1-(thiophen-2-ylcarbonyl)piperidin-4-yl]phenyl}azetidine-3-carboxamide], the IC50 was determined as 3.64 nM in assay [1] and 0.391 nM at NAMPT.

Turning to `Cn1cccc1C(=O)N1CCC(c2ccc(NC(=O)C3CN(c4cccnc4)C3)cc2)CC1` [Example 128, N-(4-{1-[(1-methyl-1H-pyrrol-2-yl)carbonyl]piperidin-4-yl}phenyl)-1-(pyridin-3-yl)azetidine-3-carboxamide], the IC50 in assay [1] came out at 8.36 nM; at NAMPT it was 0.61 nM.

`O=C(Nc1ccc(C2CCN(C(=O)c3ccco3)CC2)cc1)C1CN(c2cccnc2)C1` [Example 129, N-{4-[1-(furan-2-ylcarbonyl)piperidin-4-yl]phenyl}-1-(pyridin-3-yl)azetidine-3-carboxamide]: the IC50 in assay [1] is 4.49 nM; at NAMPT it was 0.367 nM.

`O=C(Nc1ccc(C2CCN(C(=O)CCN3CCCCC3)CC2)cc1)C1CN(c2cccnc2)C1` [Example 130, N-(4-{1-[3-(piperidin-1-yl)propanoyl]piperidin-4-yl}phenyl)-1-(pyridin-3-yl)azetidine-3-carboxamide]: the IC50 in assay [1] worked out at 288 nM; on NAMPT, 0.535 nM.

`CCOCC(=O)N1CCC(c2ccc(NC(=O)C3CN(c4cccnc4)C3)cc2)CC1` [Example 131, N-{4-[1-(ethoxyacetyl)piperidin-4-yl]phenyl}-1-(pyridin-3-yl)azetidine-3-carboxamide]: the figures for the half-maximal inhibitory concentration (IC50) (in assay [1]; on NAMPT) were 69.9 nM and 0.474 nM, respectively.

Turning to `CC(C)(C)CC(=O)N1CCC(c2ccc(NC(=O)C3CN(c4cccnc4)C3)cc2)CC1` [Example 132, N-{4-[1-(3,3-dimethylbutanoyl)piperidin-4-yl]phenyl}-1-(pyridin-3-yl)azetidine-3-carboxamide], the figures for the IC50 (in assay [1]; at NAMPT) were 8.46 nM and 0.441 nM, respectively.

For `CCC(C)(C)C(=O)N1CCC(c2ccc(NC(=O)C3CN(c4cccnc4)C3)cc2)CC1` [Example 133, N-{4-[1-(2,2-dimethylbutanoyl)piperidin-4-yl]phenyl}-1-(pyridin-3-yl)azetidine-3-carboxamide], the IC50 was 12 nM in assay [1] and 0.626 nM at NAMPT.

With `CCCC(=O)N1CCC(c2ccc(NC(=O)C3CN(c4cccnc4)C3)cc2)CC1` [Example 134, N-[4-(1-butanoylpiperidin-4-yl)phenyl]-1-(pyridin-3-yl)azetidine-3-carboxamide], the results for the IC50 (in assay [1]; at NAMPT) were 16.9 nM and 0.361 nM, respectively.

As to `COCC(=O)N1CCC(c2ccc(NC(=O)C3CN(c4cccnc4)C3)cc2)CC1` [Example 135, N-{4-[1-(methoxyacetyl)piperidin-4-yl]phenyl}-1-(pyridin-3-yl)azetidine-3-carboxamide], the IC50 in assay [1] was 33.9 nM; on NAMPT it was 0.293 nM.

As for `O=C(Nc1ccc(C2CCN(C(=O)C3CCCCC3)CC2)cc1)C1CN(c2cccnc2)C1` [Example 136, N-{4-[1-(cyclohexylcarbonyl)piperidin-4-yl]phenyl}-1-(pyridin-3-yl)azetidine-3-carboxamide], the IC50 amounted to 20.4 nM in assay [1] and 0.635 nM on NAMPT.

On to `CC(C)CC(=O)N1CCC(c2ccc(NC(=O)C3CN(c4cccnc4)C3)cc2)CC1` [Example 137, N-{4-[1-(3-methylbutanoyl)piperidin-4-yl]phenyl}-1-(pyridin-3-yl)azetidine-3-carboxamide], for which the IC50 in assay [1] was found to be 17.6 nM; on NAMPT it was 0.459 nM.

For `O=C(Nc1ccc(C2CCN(C(=O)C3CCCC3)CC2)cc1)C1CN(c2cccnc2)C1` [Example 138, N-{4-[1-(cyclopentylcarbonyl)piperidin-4-yl]phenyl}-1-(pyridin-3-yl)azetidine-3-carboxamide], the values for the IC50 (in assay [1]; on NAMPT) were 21.8 nM and 0.445 nM, respectively.

As to `CC(C)C(C)C(=O)N1CCC(c2ccc(NC(=O)C3CN(c4cccnc4)C3)cc2)CC1` (stereo not shown) [Example 139, N-{4-[1-(2,3-dimethylbutanoyl)piperidin-4-yl]phenyl}-1-(pyridin-3-yl)azetidine-3-carboxamide], the results for the IC50 (in assay [1]; at NAMPT) were 12 nM and 0.473 nM, respectively.

In the case of `CC(C)(C)CC(=O)N1CCC(c2ccc(NC(=O)C3CN(c4ccnnc4)C3)cc2)CC1` [Example 140, N-{4-[1-(3,3-dimethylbutanoyl)piperidin-4-yl]phenyl}-1-(pyridazin-4-yl)azetidine-3-carboxamide], the IC50 in assay [1] was found to be 11 nM; at NAMPT it was 8.87 nM.

As to `CC(C)(O)C(=O)N1CCC(c2ccc(NC(=O)[C@H]3CCN(c4ccnnc4)C3)cc2)CC1` [Example 141, (3S)—N-{4-[1-(2-hydroxy-2-methylpropanoyl)piperidin-4-yl]phenyl}-1-(pyridazin-4-yl)pyrrolidine-3-carboxamide], the figures for the IC50 (in assay [1]; at NAMPT) were 1240 nM and 75.2 nM, respectively.
